Assay results reported in PubChem BioAssay AID286 (DTP/NCI, 2004).
Where “and” joins values, the source holds several entries; their conditions need not be identical. Equal values may be shown once. Inconclusive results and toxic doses are left out.

Tested on: BDF1 mice, M5076 sarcoma ip, median survival T/C
Experiment: NCI In Vivo Anticancer Drug Screen. Data for tumor model Sarcoma M5076 (intraperitoneal) in B6D2F1 (BDF1) mice
Settings: endpoint: median survival time, higher = longer survival
Protocol: The antitumor activity of compounds was measured in mice bearing transplantable tumors. Survival or tumor size were measured and the results are expressed as the measurement made in the treated group (T) divided by the measurement made in the vehicle treated control group (C). The tumor model used in this assay is Sarcoma M5076 (intraperitoneal) in B6D2F1 (BDF1) mice

[1] = dose: 0.5 mg/kg/injection, schedule: Q04DX005 (ip), vehicle: saline
[2] = dose: 1.0 mg/kg/injection, schedule: Q04DX005 (ip), vehicle: saline
[3] = dose: 0.38 mg/kg/injection, schedule: Q01DX009 (ip), vehicle: saline + alcohol
[4] = dose: 0.75 mg/kg/injection, schedule: Q01DX009 (ip), vehicle: saline + alcohol
[5] = dose: 1.5 mg/kg/injection, schedule: Q01DX009 (ip), vehicle: saline + alcohol
[6] = dose: 3.0 mg/kg/injection, schedule: Q01DX009 (ip), vehicle: saline + alcohol
[7] = dose: 4.0 mg/kg/injection, schedule: Q04DX004 (ip), vehicle: saline
[8] = dose: 8.0 mg/kg/injection, schedule: Q04DX004 (ip), vehicle: saline

CC(=O)/C(=C\c1ccc(Cl)c(Cl)c1)C(=O)CCN(C)C
T/C (dose: 12.5 mg/kg/injection, schedule: Q04DX004 (ip), vehicle: saline): 100 % of control | T/C (dose: 25.0 mg/kg/injection, schedule: Q04DX004 (ip), vehicle: saline): 97 % of control | T/C (dose: 50.0 mg/kg/injection, schedule: Q04DX004 (ip), vehicle: saline): 101 % of control | T/C (dose: 100.0 mg/kg/injection, schedule: Q04DX004 (ip), vehicle: saline): 86 % of control

CC[C@]1(O)C[C@H]2CN(CCc3c([nH]c4ccccc34)[C@@](C(=O)OC)(c3cc4c(cc3OC)N(C=O)[C@H]3[C@@](O)(C(=O)OC)[C@H](OC(C)=O)[C@]5(CC)C=CCN6CC[C@]43[C@@H]65)C2)C1
T/C (dose: 0.25 mg/kg/injection, schedule: Q04DX005 (ip), vehicle: saline): 112 % of control and 124 % of control | T/C [1]: 164 % of control | T/C [2]: 228 % of control and 156 % of control

CCC/C=C/C=C/C(=O)OC1C(C)C2(O)C3C=C(C)C(=O)C3CC(COC(C)=O)=CC2C2C(C)(C)C12OC(=O)C(C)C (centres undefined)
T/C [3]: 110 % of control | T/C [4]: 103 % of control | T/C [5]: 110 % of control | T/C [6]: 114 % of control | T/C (dose: 6.0 mg/kg/injection, schedule: Q01DX009 (ip), vehicle: saline + alcohol): 115 % of control

O=C1N[C@H]2[C@H](O)[C@H](O)[C@@H](O)[C@H](O)[C@@H]2c2cc3c(c(O)c21)OCO3
T/C [3]: 153 % of control | T/C [4]: 159 % of control | T/C [5]: 161 % of control and 166 % of control | T/C [6]: 184 % of control and 165 % of control

Cc1c(N)nc([C@H](CC(N)=O)NC[C@H](N)C(N)=O)nc1C(=O)N[C@H](C(=O)N[C@H](C)[C@@H](O)[C@H](C)C(=O)N[C@H](C(=O)NCCc1nc(-c2nc(C(=O)NCCC[S+](C)C)cs2)cs1)[C@@H](C)O)C(OC1OC(CO)C(O)C(O)C1OC1OC(CO)C(O)C(OC(N)=O)C1O)c1cnc[nH]1 (some centres undefined)
T/C [7]: 113 % of control | T/C [8]: 101 % of control | T/C (dose: 16.0 mg/kg/injection, schedule: Q04DX004 (ip), vehicle: saline): 117 % of control | T/C (dose: 32.0 mg/kg/injection, schedule: Q04DX004 (ip), vehicle: saline): 116 % of control

O=C(NC(Cc1ccc(I)cc1)C(=O)O)c1cccc(Br)c1 (centres undefined)
T/C (dose: 100.0 mg/kg/injection, schedule: Q04DX004 (ip), vehicle: Klucel (hydroxypropylcellulose) (HPC)): 116 % of control | T/C (dose: 200.0 mg/kg/injection, schedule: Q04DX004 (ip), vehicle: Klucel (hydroxypropylcellulose) (HPC)): 114 % of control | T/C (dose: 400.0 mg/kg/injection, schedule: Q04DX004 (ip), vehicle: Klucel (hydroxypropylcellulose) (HPC)): 99 % of control

O=C(O)CC(NC(=O)CP(=O)(O)O)C(=O)O (centres undefined)
T/C (dose: 50.0 mg/kg/injection, schedule: Q04DX005 (ip), vehicle: saline): 164 % of control | T/C (dose: 100.0 mg/kg/injection, schedule: Q04DX005 (ip), vehicle: saline): 180 % of control | T/C (dose: 108.0 mg/kg/injection, schedule: Q04DX004 (ip), vehicle: saline): 178 % of control | T/C (dose: 180.0 mg/kg/injection, schedule: Q04DX004 (ip), vehicle: saline): 195 % of control | T/C (dose: 200.0 mg/kg/injection, schedule: Q04DX005 (ip), vehicle: saline): 165 % of control | T/C (dose: 300.0 mg/kg/injection, schedule: Q04DX004 (ip), vehicle: saline): 195 % of control | T/C (dose: 400.0 mg/kg/injection, schedule: Q04DX005 (ip), vehicle: saline): 184 % of control and 200 % of control | T/C (dose: 500.0 mg/kg/injection, schedule: Q04DX004 (ip), vehicle: saline): 204 % of control | T/C (dose: 833.0 mg/kg/injection, schedule: Q04DX004 (ip), vehicle: saline): 216 % of control

CC(=O)N(C)O
T/C (dose: 37.0 mg/kg/injection, schedule: Q04DX004 (ip), vehicle: saline with Tween-80): 99 % of control | T/C (dose: 75.0 mg/kg/injection, schedule: Q04DX004 (ip), vehicle: saline with Tween-80): 107 % of control | T/C (dose: 150.0 mg/kg/injection, schedule: Q04DX004 (ip), vehicle: saline with Tween-80): 107 % of control | T/C (dose: 300.0 mg/kg/injection, schedule: Q04DX004 (ip), vehicle: saline with Tween-80): 113 % of control | T/C (dose: 600.0 mg/kg/injection, schedule: Q04DX004 (ip), vehicle: saline with Tween-80): 103 % of control

COc1cccc2c1C(=O)c1c(O)c3c(c(O)c1C2=O)C[C@@](O)(C(=O)CO)C[C@@H]3OC1CC(N)C(O)C(C)O1 (some centres undefined)
T/C [1]: 196 % of control | T/C (dose: 0.75 mg/kg/injection, schedule: Q04DX005 (ip), vehicle: saline): 204 % of control | T/C [2]: 197 % of control | T/C (dose: 1.5 mg/kg/injection, schedule: Q01DX007 (ip), vehicle: saline): 171 % of control | T/C (dose: 1.5 mg/kg/injection, schedule: Q04DX005 (ip), vehicle: saline): 277 % of control | T/C (dose: 2.0 mg/kg/injection, schedule: Q04DX004 (ip), vehicle: saline): 160 % of control | T/C (dose: 2.0 mg/kg/injection, schedule: Q04DX005 (ip), vehicle: saline): 401 % of control | T/C (dose: 2.1 mg/kg/injection, schedule: Q01DX007 (ip), vehicle: saline): 176 % of control | T/C (dose: 3.0 mg/kg/injection, schedule: Q01DX007 (ip), vehicle: saline): 216 % of control | T/C (dose: 3.0 mg/kg/injection, schedule: Q04DX005 (ip), vehicle: saline): 308 % of control | T/C (dose: 3.4 mg/kg/injection, schedule: Q04DX003 (ip), vehicle: saline): 152 % of control | T/C [7]: 190 % of control | T/C (dose: 4.0 mg/kg/injection, schedule: Q04DX005 (ip), vehicle: saline): 208 % of control | T/C (dose: 5.0 mg/kg/injection, schedule: Q04DX003 (ip), vehicle: saline): 176 % of control | T/C (dose: 6.0 mg/kg/injection, schedule: Q04DX005 (ip), vehicle: saline): 308 % of control | T/C (dose: 7.0 mg/kg/injection, schedule: Q01DX001 (ip), vehicle: saline): 159 % of control | T/C (dose: 7.5 mg/kg/injection, schedule: Q04DX003 (ip), vehicle: saline): 120 % of control | T/C [8]: 190 % of control | T/C (dose: 10.0 mg/kg/injection, schedule: Q01DX001 (ip), vehicle: saline): 159 % of control | T/C (dose: 15.0 mg/kg/injection, schedule: Q01DX001 (ip), vehicle: saline): 185 % of control

COc1cc2nc3occc3c(OC)c2cc1OCC(O)C(C)(C)O (centres undefined)
T/C (dose: 2.0 mg/kg/injection, schedule: Q01DX009 (ip), vehicle: Klucel (hydroxypropylcellulose) (HPC)): 106 % of control | T/C (dose: 4.0 mg/kg/injection, schedule: Q01DX009 (ip), vehicle: Klucel (hydroxypropylcellulose) (HPC)): 117 % of control | T/C (dose: 8.0 mg/kg/injection, schedule: Q01DX009 (ip), vehicle: Klucel (hydroxypropylcellulose) (HPC)): 106 % of control | T/C (dose: 16.0 mg/kg/injection, schedule: Q01DX009 (ip), vehicle: Klucel (hydroxypropylcellulose) (HPC)): 113 % of control | T/C (dose: 32.0 mg/kg/injection, schedule: Q01DX009 (ip), vehicle: Klucel (hydroxypropylcellulose) (HPC)): 106 % of control

Nc1nc(=S)c2[nH]cnc2[nH]1
T/C (dose: 0.75 mg/kg/injection, schedule: Q04DX005 (ip), vehicle: alkali diluted with saline): 101 % of control | T/C (dose: 2.0 mg/kg/injection, schedule: Q04DX005 (ip), vehicle: alkali diluted with saline): 92 % of control | T/C (dose: 6.0 mg/kg/injection, schedule: Q04DX005 (ip), vehicle: alkali diluted with saline): 157 % of control

Cc1ccc2c(c1)n([O-])c1cc(Cl)ccc1[n+]2=O
T/C (dose: 25.0 mg/kg/injection, schedule: Q04DX004 (ip), vehicle: saline with Tween-80): 109 % of control | T/C (dose: 50.0 mg/kg/injection, schedule: Q04DX004 (ip), vehicle: saline with Tween-80): 112 % of control | T/C (dose: 100.0 mg/kg/injection, schedule: Q04DX004 (ip), vehicle: saline with Tween-80): 110 % of control | T/C (dose: 200.0 mg/kg/injection, schedule: Q04DX004 (ip), vehicle: saline with Tween-80): 110 % of control | T/C (dose: 400.0 mg/kg/injection, schedule: Q04DX004 (ip), vehicle: saline with Tween-80): 115 % of control

COC(=O)[C@@]12OC[C@]34[C@H]([C@@H](O)[C@@H]1O)[C@@]1(C)CC(=O)C(O)=C(C)[C@@H]1C[C@H]3OC(=O)[C@H](OC(=O)/C=C(\C)C(C)C)[C@@H]24
T/C (dose: 0.12 mg/kg/injection, schedule: Q04DX004 (ip), vehicle: saline): 104 % of control and 107 % of control and 113 % of control | T/C (dose: 0.12 mg/kg/injection, schedule: Q04DX005 (ip), vehicle: saline): 108 % of control (2×) and 116 % of control | T/C (dose: 0.13 mg/kg/injection, schedule: Q04DX004 (ip), vehicle: saline): 111 % of control and 114 % of control | T/C (dose: 0.13 mg/kg/injection, schedule: Q04DX005 (ip), vehicle: saline): 106 % of control and 114 % of control
